Laboratory results taken from the supplement of paper PMC10307832.

What was measured:
Experiment in all cases: relative viability (nuclei count vs DMSO), 5 days (fraction); higher = more cells survive
[1] = compound: CCOC(=O)CCNc1cc(N2CCc3ccccc3CC2)nc(-c2ccccn2)n1 [GSK-J4] + COc1cc2c(Oc3ccc(NC(=O)C4(C(=O)Nc5ccc(F)cc5)CC4)cc3F)ccnc2cc1OCCCN1CCOCC1 [Foretinib] (partner 0.25 µM)
Summary of the method: (§1)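 Values are medians from duplicate plates. Each reflects relative viability, defined as the nuclei count of treated wells over that of vehicle wells. Lung cancer cell lines in 1536-well plates were pin-tool dosed one day after seeding with one drug alone or with a fixed anchor-drug dose plus five library-drug doses (not always all listed) in √10 steps, then fixed, stained and imaged at 4× after 5 days.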

[2] = compound: CCOC(=O)CCNc1cc(N2CCc3ccccc3CC2)nc(-c2ccccn2)n1 [GSK-J4] + C[C@@H](Oc1cc(-c2cnn(C3CCNCC3)c2)cnc1N)c1c(Cl)ccc(F)c1Cl [Crizotinib] (partner 1 µM)
Summary of the method: as §1

[3] = compound: CCOC(=O)CCNc1cc(N2CCc3ccccc3CC2)nc(-c2ccccn2)n1 [GSK-J4] + C[C@]1(O)C[C@@H](c2nc(-c3ccc4ccc(-c5ccccc5)nc4c3)c3c(N)nccn32)C1 [Linsitinib] (partner 1 µM)
Summary of the method: as §1

[4] = compound: CN1CCC(CC1)OC2=CC(=C(C=C2)NC3=NC=C4C(=N3)N(C(=O)N4C)C5CCCC5)OC [AZ3146] + CS(=O)(=O)N1CCN(Cc2cc3nc(-c4cccc5[nH]ncc45)nc(N4CCOCC4)c3s2)CC1 [Pictilisib] (partner 1 µM)
Summary of the method: as §1

Cell Line	relative viability ([1]; first compound 0.5 µM)	relative viability ([1]; first compound 1.581 µM)	relative viability ([1]; first compound 5 µM)	relative viability ([1]; first compound 15.81 µM)	relative viability ([1]; first compound 50 µM)	relative viability ([2]; first compound 0.5 µM)	relative viability ([2]; first compound 1.581 µM)	relative viability ([2]; first compound 5 µM)	relative viability ([2]; first compound 15.81 µM)	relative viability ([2]; first compound 50 µM)	relative viability ([3]; first compound 0.5 µM)	relative viability ([3]; first compound 1.581 µM)	relative viability ([3]; first compound 5 µM)	relative viability ([3]; first compound 15.81 µM)	relative viability ([3]; first compound 50 µM)	relative viability ([4]; first compound 0.08 µM)	relative viability ([4]; first compound 0.253 µM)	relative viability ([4]; first compound 0.8 µM)	relative viability ([4]; first compound 2.53 µM)	relative viability ([4]; first compound 8 µM)
NCI-H1703	0.319	0.403	0.337	0.325	0.304	0.736	0.748	0.431	0.616	0.662	0.636	0.276	0.336	0.364	0.761	0.254	0.258	0.231	0.228	0.234
NCI-H520	0.691	0.689	0.811	0.613	0.626	0.737	0.633	0.846	0.805	0.553	0.829	0.939	1.15	0.891	0.81	0.255	0.287	0.303	0.284	0.31
LOU-NH91	0.963	0.925	0.789	0.893	0.918	0.756	0.711	0.674	0.695	0.712	1	0.928	0.804	0.817	1	0.475	0.542	0.459	0.494	0.474
LU99A	0.731	0.78	–	0.809	0.523	0.571	0.534	0.618	0.581	0.474	0.515	0.53	0.565	0.404	0.457	0.318	0.351	0.32	0.376	0.351
PC-14	0.902	0.832	0.794	0.926	0.963	0.858	0.896	0.843	0.842	0.855	0.909	0.918	0.86	0.915	1.05	0.68	0.763	0.725	0.71	0.518
NCI-H1563	0.943	0.898	0.747	0.801	0.973	0.888	0.779	0.684	0.837	0.857	1.15	1.2	1.22	1.18	1.24	0.636	0.641	0.729	0.685	0.604
LC-2-ad	0.909	0.763	0.868	0.781	0.775	0.554	0.426	0.375	0.41	0.427	0.795	0.831	0.794	0.769	0.839	0.398	0.483	0.425	0.579	0.41
NCI-H2126	1.06	1.05	1.14	0.889	0.795	0.99	0.823	1	0.979	0.917	0.735	0.705	0.732	0.677	0.725	0.41	0.483	0.465	0.517	0.496
